Experiments:
Type in all cases: cell-based
STAT3 = STAT3 (Homo sapiens, UniProt P40763); assay: Inhibition of STAT3 phosphorylation in BT20 breast tumor cells (western blot); design: endogenous in cells; host or cells: BT20 breast tumor cells
Procedure: Inhibition of STAT3 in BT20 Breast Tumor Cells. General procedure: 35 mm petri dishes were plated with 300,000 BT20 cells in 2 mL RPMI1640 media containing 10% FBS, […], streptomycin, and glutamine. Prodrugs were dissolved in DMSO and were added to the cells with fresh media at varying concentrations. After 2 h the cells were washed with ice cold phosphate buffered saline. Washed cells were treated with lysis buffer (50 mM Hepes, pH 7.4, 150 mM NaCl, 1.5 mM MgCl2, 1 mM EGTA, 100 mM NaF, 10 mM sodium pyrophosphate, 10% glycerol, 1% Triton X-100, 1 mM PMSF, 1 mM Na3VO4, 10 μg/mL leupeptin and 10 μg/mL aprotinin). Cell-free detergent extracts were centrifuged at 15,000 rpm in a microcentriguge for 30 min at 4° C. and the protein concentrations of the supernatants determined. Aliquots containing 12 μg of protein were separated on 8% SDS-PAGE and were transferred to PVDF filters. The filters were blocked with 5% bovine serum albumin and were probed with pStat3^Y705 antibody followed by secondary antibody, whose signal was detected with an enhanced chemiluminescence kit (ECL, Amersham, Chicago, Ill.). Filters were stripped with stripping buffer (62.5 mM Tris, pH 6.8, 2% SDS, and 0.1 M 2-mercaptoethanol) at 50° C. for 30 min. Filters were then probed with total Stat3 antibody and visualized with chemiluminescence as above.
Because DMSO is toxic, other formulations were evaluated for potential use in animal models. The compound of Example 1 was dissolved in EtOH, 20% (w/v) Trappsol (hydroxypropyl β-cyclodextran, pharmaceutical grade), or a liposomal formulation to a concentration of 5 mM. These formulations were given to cells at 0.1, 0.5, and 5 μM concentrations. At two hours, cells were lysed and pSTAT3 levels were determined by Western Blot (FIG. 3). Different formulations have little effect on inhibition of STAT3. The compound of Example 1 was dissolved in DMSO, EtOH, Trappsol, or as a 10 mol % mixture in dimyristoylphosphatidyl choline and applied to BT20 cell in culture. After two hours, cells were lysed and pSTAT3 levels determined by Western blot. To prepare liposomes a solution of 1.0 mg of the compound of Example 1, 7.2 mg of DMPC, 0.41 mg of Tween 20 in 1.0 mL of tert-butanol was lyophilized. A control lipid formulation of 7.2 mg of DMPC and 0.41 mg of Tween 20 in 1.0 mL of tert-butanol was lyophilized. These samples were mixed with 236 μL of H2O and were vortexed and sonicated for 5 min.
The compounds are selective for STAT3 over STAT1 in BT20 breast tumor cells. BT20 cells prepared as above and were treated with 5 μM of the compound of Example 1 for two hours then were treated with 25 ng/mL of interferon γ (IFNγ). […] (FIG. 4, bottom panel).
Time course of inhibition of STAT3 phosphorylation in BT20 cells. BT20 cells were plated as above and treated with the compounds from Examples 1 and 6 and western blots were performed at varying time intervals.

[1] = test system: SUM149 inflammatory breast tumor cells; assay: Anchorage-independent growth in soft agar, SUM149; details: 28 days
Procedure: Assay for anchorage-independent growth in soft agar Cells (5×10^5) were suspended in 1× DMEM/HEPES, 10% heat-inactivated FBS, 0.13% bicarbonate, and 0.33% BBL agar. The cells were plated on 1% base agar plates (60 mm) containing 1× DMEM/HEPES, 10% heat-inactivated FBS, and 1% BBL agar. Fresh serum-containing medium was fed to the cells on 3-day intervals. The dishes were then incubated at 37° C. with 5% CO2 for 28 days. The colonies that grew in soft agar were photographed and counted. Data are expressed as the number of colonies formed per plate±S.E.M. and three plates were counted per cell line.

STAT1 = molecular target: T1, STAT1 (Homo sapiens, UniProt P42224); assay: IFNγ-stimulated STAT1 phosphorylation in MDA-MB-468 cells; design: host or cells: MDA-MB-468 breast tumor cells; details: for inhibition of Stat1 phosphorylation compared with Stat3 phosphorylation: 1.5 hr prodrug, then interferonγ 25 ng/mL 30 min; for fold less potent at inhibiting STAT1 than STAT3: MDA-MB-468 cells
T1 sequence (P42224 1-750): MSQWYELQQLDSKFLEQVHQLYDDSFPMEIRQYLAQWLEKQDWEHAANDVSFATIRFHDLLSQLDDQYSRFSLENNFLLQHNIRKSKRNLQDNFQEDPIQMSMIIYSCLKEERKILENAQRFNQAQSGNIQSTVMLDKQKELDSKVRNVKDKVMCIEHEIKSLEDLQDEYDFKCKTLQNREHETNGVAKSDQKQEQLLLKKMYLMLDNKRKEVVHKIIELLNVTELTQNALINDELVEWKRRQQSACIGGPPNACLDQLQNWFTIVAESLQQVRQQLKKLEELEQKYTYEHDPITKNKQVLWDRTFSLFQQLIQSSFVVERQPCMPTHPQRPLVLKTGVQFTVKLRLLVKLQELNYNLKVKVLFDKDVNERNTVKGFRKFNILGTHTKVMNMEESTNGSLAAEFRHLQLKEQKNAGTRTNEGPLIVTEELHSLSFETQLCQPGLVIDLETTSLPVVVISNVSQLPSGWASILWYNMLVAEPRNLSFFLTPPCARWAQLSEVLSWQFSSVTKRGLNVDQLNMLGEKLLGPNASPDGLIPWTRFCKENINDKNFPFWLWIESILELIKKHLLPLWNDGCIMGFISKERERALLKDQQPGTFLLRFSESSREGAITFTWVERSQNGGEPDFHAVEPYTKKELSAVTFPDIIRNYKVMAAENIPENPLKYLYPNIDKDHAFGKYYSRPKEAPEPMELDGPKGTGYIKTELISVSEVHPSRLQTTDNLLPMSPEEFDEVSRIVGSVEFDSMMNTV
Procedure: Effect of Prodrug on the phosphorylation of STAT1 in MDA-MB-468 breast tumor cells. MDA-MB-468 cells were prepared as above. Prodrugs were prepared as 10 mM stock solutions in DMSO and aliquots were added to the culture media to give the correct final concentrations. After 1.5 hr interferonγ was added at 25 ng/mL. After 30 minutes cells were collected and lysed and proteins were separated by PAGE and transferred to PVDF filters as above. Filters were probed for phosphoTyr701 Stat 1 and total Stat1 using appropriate antibodies and similar detection procedures to those used for Stat3.

STAT3, sequence (P40763 whole entry): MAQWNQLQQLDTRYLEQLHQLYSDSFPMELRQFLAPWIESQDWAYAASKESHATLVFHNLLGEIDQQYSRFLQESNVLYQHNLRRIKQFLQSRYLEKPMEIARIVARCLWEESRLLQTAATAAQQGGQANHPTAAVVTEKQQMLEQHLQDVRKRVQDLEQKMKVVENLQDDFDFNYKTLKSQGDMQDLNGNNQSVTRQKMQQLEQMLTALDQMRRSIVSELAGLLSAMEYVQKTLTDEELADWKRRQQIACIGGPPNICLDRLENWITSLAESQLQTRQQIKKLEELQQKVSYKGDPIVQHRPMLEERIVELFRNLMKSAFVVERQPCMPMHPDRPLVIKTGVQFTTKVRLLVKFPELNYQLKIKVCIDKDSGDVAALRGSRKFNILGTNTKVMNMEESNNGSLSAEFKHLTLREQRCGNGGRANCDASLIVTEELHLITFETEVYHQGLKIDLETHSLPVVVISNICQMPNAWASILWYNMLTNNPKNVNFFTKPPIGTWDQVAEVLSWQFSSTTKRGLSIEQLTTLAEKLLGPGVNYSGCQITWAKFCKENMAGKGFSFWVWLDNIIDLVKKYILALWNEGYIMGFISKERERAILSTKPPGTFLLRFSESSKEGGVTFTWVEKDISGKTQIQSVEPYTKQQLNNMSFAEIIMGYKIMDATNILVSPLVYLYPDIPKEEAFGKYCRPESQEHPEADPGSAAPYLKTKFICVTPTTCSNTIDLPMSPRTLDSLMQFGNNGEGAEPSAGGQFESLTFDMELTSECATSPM

| Compound | increase in pSTAT3 formation on EGF stimulation (STAT3; 5 μM, 2 h, then EGF 50 ng/mL, BT20) | phosphorylation of STAT3 at the indicated time points (STAT3; 5 μM, BT-20 cells) | selectivity for STAT3 over STAT1 and AKT (STAT3; BT20 cells) | pSTAT3 inhibition compared with DMSO sample (STAT3; dissolved in EtOH, 0.1 μM, 2 h, BT20) | pSTAT3 inhibition compared with DMSO sample (STAT3; dissolved in EtOH, 0.5 and 5 μM, 2 h, BT20) | pSTAT3 inhibition compared with DMSO sample (STAT3; in 20% Trappsol HPB, 0.1 μM, 2 h, BT20) | pSTAT3 inhibition compared with DMSO sample (STAT3; in 20% Trappsol HPB, 0.5 and 5 μM, 2 h, BT20) | pSTAT3 inhibition compared with DMSO sample (STAT3; liposomal preparation (DMPC/Tween 20), 2 h, BT20) | colony formation in soft agar [1] | inhibition of Stat1 phosphorylation compared with Stat3 phosphorylation (STAT1) | fold less potent at inhibiting STAT1 than STAT3 (STAT1) |
| --- | --- | --- | --- | --- | --- | --- | --- | --- | --- | --- | --- |
| C/C(=C\C(=O)N[C@H]1CCc2cccc3c2N(C1=O)[C@H](C(=O)N[C@H](C)CCC(N)=O)C3)c1ccc(C(F)(F)P(=O)(OCOC(=O)C(C)(C)C)OCOC(=O)C(C)(C)C)cc1 [Example 1, (2E)-3-[4-[[bis[(2,2-dimethyl-1-oxopropoxy)methoxy]phosphinyl]difluoromethyl]phenyl]-but-2-enoyl-Haic-(R)-4-aminopentamide] | inhibited the increase in pSTAT3 formation | inhibit the phosphorylation of STAT3 | selective for STAT3 over STAT1 and AKT | did not inhibit as much as did the DMSO sample | comparable | did not inhibit as much as did the DMSO sample | comparable | inhibition comparable to DMSO | inhibition of colony formation | less effective | about 10 fold |
| CCCC[C@H](NC(=O)/C=C(\C)c1ccc(C(F)(F)P(=O)(OCOC(=O)C(C)(C)C)OCOC(=O)C(C)(C)C)cc1)C(=O)N1C[C@H]2CC2[C@H]1C(=O)N[C@@H](CCC(N)=O)[C@@H](C)OCc1ccccc1 (stereo partly drawn) [Example 16, (2E)-3-[4-[[bis[(2,2-dimethyl-1-oxopropoxy)methoxy]phosphinyl]difluoromethyl]phenyl]-but-2-enoyl-norleucinyl-(2S,3R,4S)-methanoprolinyl-(4S,5R)-4-amino-5-benzyloxyhexamide] |  |  |  |  |  |  |  |  |  | less effective | about 10 fold |
